# Results: a melting point compilation (Tetko et al.; mined from patent text by program, amines drawn as free bases though some values may be those of a salt)
row,SMILES,melting point [°C]
1,CC(=Cc1ccccc1)c1cc2c(cc1C)C(C)(C)CCC2(C)C,75 to 77
2,COc1ccc(C=CC(=O)c2ccc(OC)cc2O)cc1,108
3,Clc1nc(OC(Cl)(Cl)Cl)cc(C(Cl)(Cl)Cl)n1,67 to 69
4,COc1c(O)cc2c(c1Sc1ccccc1)CCN(C)CC2,161 to 162
5,N#Cc1cc(F)c(N)cc1Oc1ccc2ccccc2c1,89
6,C[C@@H](Cc1cc(F)cc2ccoc12)NC(=O)OC(C)(C)C,120 to 121
7,CC(=O)NCC1CC1c1ccc(F)c2nn(C)cc12 (centres undefined),147 to 148
8,CC1(C)C=Cc2cc(C(=O)NCCCCc3ccccc3)ccc2O1,65 to 70
9,Nc1cccc(Nc2ncnc3[nH]cc(C(=O)c4ccccc4)c23)c1,280 to 282
10,CCCCCCCNC(=O)N(C)c1cccc(-c2ccc(C=C(C)C(=O)O)cc2OCC)c1,123
11,CCN(CC)CCSCC(=O)c1ccc2[nH]c3ncc(Cl)cc3c2c1,137 to 138
12,COc1cc(C2=CCCCC2)c(Cl)cc1C(=O)N1Cc2cccn2Cc2ccccc21,92 to 98
13,CN(C(=O)CCN)c1nnc(-c2cccnc2)s1,110 to 112
14,CN1c2c(occ(CO)c2=O)-c2ccccc2S1(=O)=O,201 to 205
15,CN(C)C1CC2(C)C(=O)CCC2C2CCC3CC(O)CCC3(C)C21 (centres undefined),135 to 136
16,O=C(c1ccccc1)c1ccccc1SSc1ccccc1C(=NO)c1ccccc1,191 to 193
17,CCC12CCC3C4CCC(=O)C=C4C(Cl)CC3C1C(OC(C)=O)CC2=O (centres undefined),115
18,Cc1ccc(S(=O)(=O)Nc2ccc3[nH]c(=O)c4ccccc4c3c2)cc1,199 to 203
19,CC(=O)C(C)Oc1nn(C(C)C(C)=O)c(-c2ccc(S(C)(=O)=O)cc2)c1-c1ccc(F)cc1 (centres undefined),127 to 129

# Second part, the compound after the results:
row,melting point [°C],SMILES
1,192 to 208,Cc1ccc2c(c1Cl)C(=O)N(C1(C(N)=O)CCCCC1)C2=O
2,198 to 199,CCN1C(=O)c2cnc(-c3ccccc3)nc2Nc2ccccc21
3,164 to 166,COc1ccc(CCNC=C2C(=O)Nc3cc(OC)c(OC)cc32)cc1OC
4,130 to 132,COc1ccc(-c2nc(C(=O)NCCc3ccccn3)sc2-c2ccc(OC)cc2)cc1
5,119,COC(=O)Cc1cc(C(=O)c2ccccc2Cl)ccc1O
6,196 to 197,O=C(O)c1cc2ccc(OCc3ccccc3)cc2oc1=O
7,201 to 203,COc1cc2c(Nc3ccc(C)c(OC(C)=O)c3)ncnc2cc1OCc1ccsc1
8,135,CSc1ccc(CN(C)CCCCc2ccc(NC(=O)c3cccc4c(=O)c5ccccc5[nH]c34)cc2)cc1
9,106 to 107,CC(C)Oc1ccc(Cc2cc3cccc(-c4cccc(C(=O)NCCO)c4)c3s2)cn1
10,146 to 147,O=C(NC(CCl)c1ccc(-c2ccc(SC(F)F)cc2)cc1)c1c(F)cccc1F (centres undefined)
11,106 to 109,CCOC(=O)c1ccc2c(cnn2CCC#N)c1
12,86,CCOC(=O)C1CCCCC1(c1ccc(O)c(C(C)(C)C)c1)c1ccc(O)c(C(C)(C)C)c1 (centres undefined)
13,131 to 133,O=C(CCC(=O)N1CCC[C@H]1C(=O)O)c1ccc(Cl)s1
14,157 to 159,Cc1nsc(SCC2=C(C(=O)OC(c3ccccc3)c3ccccc3)N3C(=O)C(N)(N)C3SC2)n1 (centres undefined)
15,95 to 97,"CC#CC(C)(C)NC(=O)C(CC)Oc1cncc(Br)c1 (single isomer, unassigned; (-))"
16,210,N#Cc1ccc(C(=O)c2cc(C(F)(F)F)ccc2S)cc1
17,71 to 72,C=CC(C)(CCC=C(C)C)OCC(=O)c1cc(C(C)C)c(O)c(C(C)C)c1 (centres undefined)
18,218 to 220,O=c1cc(N2CCOCC2)oc2ccc(-c3ccccc3)cc12
19,282 to 286,CN1C(=O)c2ccccc2N=C(N)C1c1ccccc1 (centres undefined)
20,202 to 204,COc1cccc2c1C[C@H]1C[C@@H](CN3CCC(O)(c4ccc(Cl)cc4)CC3)CN(C)[C@@H]1C2
